Measurements from paper PMC10096035, “Switching from Aromatase Inhibitors to Dual Targeting Flavonoid-Based Compounds for Breast Cancer Treatment” (Molecules, 2023).

Columns and labels:
[1] = target: T1, ERα (Estrogen Receptor α) (Homo sapiens, UniProt P03372); assay: fluorescence polarization competition (PolarScreen); settings: read-out: ERα Binding IC50 μM ^1
T1 construct: gene ESR1; purified ERα supplied with the PolarScreen kit (Invitrogen); construct not described
T1 sequence (P03372 1-595): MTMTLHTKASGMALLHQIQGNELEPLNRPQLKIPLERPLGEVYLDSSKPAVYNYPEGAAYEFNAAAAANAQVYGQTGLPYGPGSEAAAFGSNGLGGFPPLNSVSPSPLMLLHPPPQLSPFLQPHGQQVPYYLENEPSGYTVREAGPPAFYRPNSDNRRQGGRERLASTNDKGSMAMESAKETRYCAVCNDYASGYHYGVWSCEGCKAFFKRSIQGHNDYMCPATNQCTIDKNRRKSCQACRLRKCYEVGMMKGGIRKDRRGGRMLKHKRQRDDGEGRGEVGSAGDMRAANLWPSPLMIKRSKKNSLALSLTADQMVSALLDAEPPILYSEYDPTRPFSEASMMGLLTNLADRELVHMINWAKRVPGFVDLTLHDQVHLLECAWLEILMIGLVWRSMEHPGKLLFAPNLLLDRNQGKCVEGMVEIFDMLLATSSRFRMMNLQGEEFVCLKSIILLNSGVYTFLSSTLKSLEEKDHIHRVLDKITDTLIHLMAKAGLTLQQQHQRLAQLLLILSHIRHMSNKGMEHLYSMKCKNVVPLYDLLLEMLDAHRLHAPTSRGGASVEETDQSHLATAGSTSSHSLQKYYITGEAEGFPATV
Text: fluorescence polarization competition (PolarScreen) on ERα (Estrogen Receptor α)

[2] = target: T2, aromatase (AR; CYP19A) (Homo sapiens, UniProt P11511); assay: fluorometric aromatase inhibition kit; format: biochemical; settings: read-out: AR Inhibition IC50 μM ^1
T2 construct: gene CYP19A1; construct not described
T2 sequence (P11511 1-503): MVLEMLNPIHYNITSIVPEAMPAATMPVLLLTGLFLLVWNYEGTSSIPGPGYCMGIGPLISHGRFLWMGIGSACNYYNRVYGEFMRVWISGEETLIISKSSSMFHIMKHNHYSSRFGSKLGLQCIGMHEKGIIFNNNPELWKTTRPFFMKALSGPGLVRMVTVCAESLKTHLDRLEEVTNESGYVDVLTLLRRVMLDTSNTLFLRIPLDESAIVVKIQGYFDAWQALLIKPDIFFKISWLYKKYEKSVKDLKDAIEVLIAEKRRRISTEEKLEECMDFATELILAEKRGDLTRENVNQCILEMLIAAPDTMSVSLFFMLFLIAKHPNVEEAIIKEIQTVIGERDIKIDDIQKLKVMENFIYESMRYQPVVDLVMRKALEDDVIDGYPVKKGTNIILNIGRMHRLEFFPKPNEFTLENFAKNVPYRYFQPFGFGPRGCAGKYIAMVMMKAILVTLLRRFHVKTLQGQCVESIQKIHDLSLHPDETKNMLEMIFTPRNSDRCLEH
Text: fluorometric aromatase inhibition kit on aromatase (AR; CYP19A)

Q: For `O=c1c(C(c2ccc([N+](=O)[O-])cc2)n2ccnc2)coc2ccccc12` (racemic) [3a], which IC50 [1] is on record?
A: > 10 µM

Q: Which IC50 [1] does the source give for `O=c1c(C(c2ccccc2)n2ccnc2)coc2ccccc12` (racemic) [3b, 3-((1H-imidazol-1-yl)(phenyl)methyl)-4H-chromen-4-one] here?
A: 0.31 µM

Q: What about the IC50 [2] of the same compound?
A: 0.5 µM

Q: `O=c1c(C(c2ccc([N+](=O)[O-])cc2)n2ccnc2)coc2cc(O)ccc12` (racemic) [4a, 3-((1H-imidazol-1-yl)(4-nitrophenyl)methyl)-7-hydroxy-4H-chromen-4-one] was tested. Which IC50 [1] did it give?
A: 0.595 µM

Q: What about the IC50 [2] of the same compound?
A: 0.122 µM

Q: What does the source list for `O=c1c(C(c2ccccc2)n2ccnc2)coc2cc(O)ccc12` (racemic) [4b, 3-((1H-imidazol-1-yl)(phenyl)methyl)-7-hydroxy-4H-chromen-4-one]?
A: IC50 [1]: 0.203 µM; IC50 [2]: 2.2 µM

Q: `O=c1c(Cn2ccnc2)c(-c2ccc([N+](=O)[O-])cc2)oc2ccccc12` [1a] was tested. Which IC50 [1] did it give?
A: > 10 µM

Q: Which IC50 [1] does the source give for `O=c1c(Cn2ccnc2)c(-c2ccccc2)oc2ccccc12` [1b] here?
A: > 10 µM

Q: `O=c1c(Cn2ccnc2)c(-c2ccc([N+](=O)[O-])cc2)oc2cc(O)ccc12` [2a, 3-((1H-imidazol-1-yl)methyl)-7-hydroxy-2-(4-nitrophenyl)-4H-chromen-4-one] was tested. Which IC50 [1] did it give?
A: > 10 µM

Q: And the IC50 [2]?
A: 2.1 µM

Q: What does the source list for `O=c1c(Cn2ccnc2)c(-c2ccccc2)oc2cc(O)ccc12` [2b, 3-((1H-imidazol-1-yl)methyl)-7-hydroxy-2-phenyl-4H-chromen-4-one]?
A: IC50 [1]: > 10 µM; IC50 [2]: 4 µM

Q: For `CC/C(=C(\c1ccc(O)cc1)c1ccc(OCCNC)cc1)c1ccccc1` [Endoxifen], which IC50 [1] is on record?
A: 0.043 µM

Q: And the IC50 [2]?
A: > 10 µM

Q: `N#Cc1ccc(C(c2ccc(C#N)cc2)n2cncn2)cc1` [Letrozole] was tested. Which IC50 [1] did it give?
A: > 10 µM
